Among the data in patent publication US6017917A, “Guanidine derivatives” (Fujisawa Pharamceutical Co., Ltd., priority 1996, dated 2000) are Ki values, retold here.

The target of the experiment is T1, Na^+ /H^+ exchanger (Rattus norvegicus, UniProt P26431).
T1 construct: endogenous in cells; host or cells: thymocytes freshly isolated from the thymus of a male SD rat
The experiment is described as follows: Inhibitory activity on Na^+ /H^+ exchange in cells (swelling of thymocytes in sodium propionate medium). Type of experiment: cell-based, rat (SD strain). Particulars: apparent Ki from Lineweaver-Burk plot, sodium-propionate medium pH 6.8, rate of swelling, 3-5 concentrations. The method, then:
[2] Inhibitory activity on Na^+ /H^+ exchange in cells
Procedure was carried out according to a similar manner to the method described in Enzymology 173 , 777 (1989).
One male SD strain rat weighing 250-300 g was sacrificed with the blow on the head. Then, the thymus was removed into ice-cold NaCl medium (140 mM sodium chloride, 1 mM potassium chloride, 1 mM calcium chloride, 1 mM magnesium chloride, 10 mM glucose and 20 mM N-2-hydroxyethylpiperazine-N'-2-ethanesulfonic acid (HEADS)--pH 7.3), cut in small fragments, and transferred to glass homogenizer. The cells were dissociated by gentle strokes, and the resulting suspension was filtrated through six layers of surgical gauze and the filtrate was centrifuged at 4° C. at 1000 g for 5 minutes. The pellet was resuspended in RPMI 1640 medium (pH 7.3) at room temperature to adjust final cell concentration (1×10^7 cells/ml).
This method detects the swelling that accompanies activation of Na^+ /H^+ exchanger in cells incubated with sodium propionate. Propionic acid rapidly penetrates through the membrane. […]
Cell sizing and counting were performed electrically with the Coulter Counter-Channelyzer (AT-II). […] Rate of Swelling (Δ volume/min.) was measured by using 3-5 concentrations of test compound. Then, apparent Ki value of test compound was calculated by using Line weaver-Burk plot.

pKi: −log10 of the molar value. Counter-ions that a name gives are not always drawn.

T1 sequence (P26431 whole entry): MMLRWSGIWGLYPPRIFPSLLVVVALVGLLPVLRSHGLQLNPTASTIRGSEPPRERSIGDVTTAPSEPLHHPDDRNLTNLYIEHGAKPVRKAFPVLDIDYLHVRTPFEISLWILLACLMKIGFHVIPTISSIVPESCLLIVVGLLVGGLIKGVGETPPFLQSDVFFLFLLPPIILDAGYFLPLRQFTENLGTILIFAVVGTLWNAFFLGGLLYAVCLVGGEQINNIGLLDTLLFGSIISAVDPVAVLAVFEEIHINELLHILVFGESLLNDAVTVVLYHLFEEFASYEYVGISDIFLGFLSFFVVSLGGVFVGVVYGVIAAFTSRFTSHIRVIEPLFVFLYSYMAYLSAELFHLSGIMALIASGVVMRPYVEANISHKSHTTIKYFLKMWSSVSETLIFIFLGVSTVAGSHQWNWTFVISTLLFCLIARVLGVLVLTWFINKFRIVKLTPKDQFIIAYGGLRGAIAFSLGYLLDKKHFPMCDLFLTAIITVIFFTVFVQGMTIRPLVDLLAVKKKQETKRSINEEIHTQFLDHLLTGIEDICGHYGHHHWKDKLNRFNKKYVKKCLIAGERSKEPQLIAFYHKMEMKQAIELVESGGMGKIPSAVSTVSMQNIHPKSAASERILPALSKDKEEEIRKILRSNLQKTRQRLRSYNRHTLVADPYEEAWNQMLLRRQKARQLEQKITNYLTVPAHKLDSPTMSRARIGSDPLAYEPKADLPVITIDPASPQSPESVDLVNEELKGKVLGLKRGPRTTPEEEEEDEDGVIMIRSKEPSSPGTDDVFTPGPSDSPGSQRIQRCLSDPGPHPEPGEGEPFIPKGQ

Turning to `NC(N)=NC(=O)c1cc(C(=O)NCCN2CCOCC2)cc(-c2cc(Cl)ccc2Cl)c1` [(a), [5-(2,5-dichlorophenyl)-3-[(2-morpholinoethyl)-carbamoyl]benzoyl]guanidine.dihydrochloride], the pKi (as a rule, the Ki on a negative log10 scale, so that one unit is a factor of ten) was > 7.00.
